Test results published in patent US9956181B2, “Composition of nanoformulated lycopene and method of using the composition” (priority 2015, dated 2018).

System: genes involved in osteoblast activity, osteoclastogenesis, apoptosis and oxidative stress enzymes
Experiment: OVX rat study: qRT-PCR of bone marrow and flushed femur
Assay type: in vivo, Wistar rats
Conditions: for decrease in concentration ratio of RANKL/OPG: P<0.05
Protocol: FIG. 10 depicts […] analysis of genes involved in osteoblast activity, osteoclastogenesis, apoptosis and oxidative stress enzymes, in accordance with embodiments of the present invention. Bone marrow (A) was analyzed for relative mRNA abundance of the osteoclastogenesis gene factor of activated T-cells (Nfatc1), while the flushed femur (B-D) was used to examine genes involved in osteoblast activity and function: type 1 collagen (Colla1), osteocalcin (Ocn), alkaline phosphatase (Alp), osteoprotegerin (Opg), and receptor activator for NF-kappa B ligand (Rankl) in sham-operated (SHAM) and ovariectomized (Ovx) rats treated with placebo or lycopene (15, 30 and 45 mg/kg body weight per day) or alendronate (ALN) (2.0 ug/kg body weight per day) for 12 weeks. Bone marrow (F-H) was analyzed for relative mRNA abundance of oxidative enzyme: glutathione peroxidase (GPx), superoxide dismutase (SOD) and catalase (CAT) in sham-operated (SHAM) and ovariectomized (Ovx) rats treated with placebo or lycopene (15, 30 and 45 mg/kg body weight per day) or alendronate (ALN) (2.0 ug/kg body weight per day) for 12 weeks. Bone marrow (I) and the flushed femur (J-L) were analyzed for relative mRNA abundance of apoptotic genes. Genes of interest including, B-cell lymphoma homologous antagonist/killer (Bak1), caspase-3 (Casp3) and -9 (Casp 9) in sham-operated (SHAM) and ovariectomized (Ovx) rats treated with placebo or lycopene (15, 30 and 45 mg/kg body weight per day) or alendronate (ALN) (2.0 ug/kg body weight per day) for 12 weeks. Bars represent the mean±SD for 10 rats in each group.
A total of 264 Wistar female rats, ˜6 months old, were supplied by the Animal House at King Fahd Medical Research Center (KFMRC), KAU. Rats were housed in individual cages and maintained at 22° C. with a 12-h light/dark cycle. During the study period, rats were given standard rodent chow diet ad libitum (commercial rat cubes containing approximately 18% protein, 3% fat, 77% carbohydrate, and 2% of an inorganic-salt mixture with a vitamin supplement by weight, supplied by Grain Silos and Flour Mills Organization, Jeddah, Saudi Arabia) and water until the onset of intervention. Prior to surgery, rats were anesthetized with ketamine [(10% ketamine hydrochloride (80 mg/kg body weight), Cayman Chemical, Michigan, USA] and xylazine [(2% xylazine hydrochloride, 10 mg/kg body weight), Sigma-Aldrich Co., St. Louis, USA]. A single longitudinal skin incision was made on the dorsal midline at the level of the kidneys and both ovaries were ligated and removed to produce an ovariectomy in all OVX group animals. A SHAM-operated group, acting as a negative control for the effect of ovariectomy on bone parameters, underwent bilateral laparotomy, during which the ovaries were exposed but remained intact. […] The lycopene-supplemented groups were given lycopene (15, 30 and 45 mg/kg body weight per day) dissolved in corn oil by daily intra-gastric administration for the experimental period of 12 weeks. The SHAM, OVX and ALN control groups were given the same volume of corn oil without lycopene treatment. […] A 12-week randomized placebo-controlled study in order to examine the protective effects of lycopene supplementation on bone mass and fragility in OVX rats was concluded. Prior to surgery, body weight and bone mineral density (BMD) were obtained for all animals. Rats were randomized using a computer-generated randomization code into one of six groups: (1) sham-operated (SHAM; n=44); (2) ovariectomized control (OVX; n=44); (3) OVX lycopene-supplemented (15 mg/kg body weight per day) (n=44); (4) OVX lycopene-supplemented (30 mg/kg body weight per day) (n=44); (5) OVX lycopene-supplemented (45 mg/kg body weight per day) (n=44) and (6) OVX alendronate-treated (ALN) [2.0 μg/kg body weight per day subcutaneously (sc)] (n=44). Alendronate is an anti-resorptive agent for the treatment of osteoporosis and was used as a positive therapy control. […]

[1] = flushed femurs, lycopene treatment

CC(C)=CCC/C(C)=C/C=C/C(C)=C/C=C/C(C)=C/C=C/C=C(C)/C=C/C=C(C)/C=C/C=C(\C)CCC=C(C)C [lycopene]
Alp, Colla1 and Ocn mRNA (OVX rats, lycopene treatment): enhancing
RANKL expression (all three doses of lycopene): down-regulated
Bak1 mRNA abundance compared to OVX control (bone marrow, lycopene treatment): up-regulated
OVX-induced increase in Nfatc1 mRNA (bone marrow, lycopene, 12 weeks, restored to SHAM level): suppressed
Casp 9 and Casp 3 gene expression [1]: did not change
Colla1 gene expression [1]: remained elevated
OPG expression (higher doses of lycopene): decreased
decrease in concentration ratio of RANKL/OPG (lycopene 30 mg/kg body weight per day): 18.9%
decrease in concentration ratio of RANKL/OPG (lycopene 45 mg/kg body weight per day): 38.3%
GPX-1, CAT and SOD relative expression (lycopene treatment, to a level higher than SHAM): increased
